Experiments:
[1] = system: Aspergillus niger ATCC 16404; experiment: Determination of MIC and MLC in test broth; assay type: cell-based; conditions: Aspergillus niger ATCC 16404, 30-day subculture
Description: (§1) Two antimicrobial endpoints were investigated. The minimum inhibitory concentration (MIC), which identifies the lowest concentration of test material at which growth for a specific organism is inhibited (by a minimum of 3 log units), reflects “biostatic activity”. The minimum lethal concentration (MLC), or lowest concentration that kills the organism and at which subculturing with growth is not possible, reflects “biocidal activity”. 1,4-CHDM and propylene glycol (PG) were added to previously sterilized screw-cap glass tubes and diluted with Peptone Water Broth with 2 wt % Dextrose (=test broth) to the following dilutions (weight percent): 0.05, 0.075, 0.125, 0.25, 0.5, 0.75, 1.25, 2.5, 5.0, 7.5, 10.0, 15.0, 20.0.
(§2) Each of 12 sets of the above test tubes were challenged with specific organisms (see Table 5) to produce a contamination of between 1.0×10^5 cfu/g and 1.0×10^6 cfu/g in the test broth to which no 1,4-CHDM or propylene glycol had been added. These challenge organisms were prepared in TSB broth, allowed to grow for 72 hours at 35° C.+/−2° C., centrifuged at 2500 rpm for 5 minutes, and the supernatant broth was removed. The microbial pellet was then re-diluted with sterile buffered water to a turbidity that matched previous 1.0×10^6 cfu/g concentrations of that organism's specific growth curve. This challenge was repeated on day 3. Plate counts of both challenges enumerated to within 1.0×10^5+/−5,000 cfu/g after 7 days incubation at 35° C.+/−2° C.
(§3) These tubes were mixed well by inversion (minimum of 25 inversions) and incubated at 35° C.+/−2° C. The tubes were inverted again (minimum of 25 times) on the third and seventh day of incubation and prior to each subculture.
(§4) These subcultures were incubated under optimal conditions and nutrition for no less than 5 days. Subcultures of 0.1 ml, undiluted and diluted 1:10, 1:100, . . . , and 1:10,000, were transferred to plates using the spread plate method onto Plate Count Agar; and SAB Dextrose Agar in addition for the Candida and Aspergillus species; and incubated as follows: 35° C.+/−2° C. for the Plate Count Agar and 22° C.+/−2° C. for the SAB Dextrose plates of Candida albicans and Aspergillus niger. Negative results were not reported before 7 days incubation and counts were performed after no less than 5 days incubation. Counts of Candida and Aspergillus species were made on the agar representing the highest count observed, usually the SAB Dextrose.

[2] = system: Bacillus subtilis ATCC 6633; experiment: Determination of MIC and MLC in test broth; assay type: cell-based; conditions: Bacillus subtilis ATCC 6633, 30-day subculture
Description: as §1, §2, §3, §4

[3] = system: Burkholderia cepacia ATCC 25416; experiment: Determination of MIC and MLC in test broth; assay type: cell-based; conditions: Burkholderia cepacia ATCC 25416, 30-day subculture
Description: as §1, §2, §3, §4

[4] = system: Candida albicans ATCC 10231; experiment: Determination of MIC and MLC in test broth; assay type: cell-based; conditions: Candida albicans ATCC 10231, 30-day subculture
Description: as §1, §2, §3, §4

[5] = system: Escherichia coli ATCC 25922; experiment: Determination of MIC and MLC in test broth; assay type: cell-based; conditions: Escherichia coli ATCC 25922, 30-day subculture
Description: as §1, §2, §3, §4

[6] = system: Penicillium notatum ATCC 36740; experiment: Determination of MIC and MLC in test broth; assay type: cell-based; conditions: Penicillium notatum ATCC 36740, 30-day subculture
Description: as §1, §2, §3, §4

[7] = system: Proteus vulgaris; experiment: Determination of MIC and MLC in test broth; assay type: cell-based; conditions: 30-day subculture
Description: as §1, §2, §3, §4

[8] = system: Pseudomonas aeruginosa ATCC 27853; experiment: Determination of MIC and MLC in test broth; assay type: cell-based; conditions: Pseudomonas aeruginosa ATCC 27853, 30-day subculture
Description: as §1, §2, §3, §4

[9] = system: Staphylococcus aureus ATCC 25923; experiment: Determination of MIC and MLC in test broth; assay type: cell-based; conditions: Staphylococcus aureus ATCC 25923, 30-day subculture
Description: as §1, §2, §3, §4

[10] = system: Streptococcus faecalis; experiment: Determination of MIC and MLC in test broth; assay type: cell-based; conditions: 30-day subculture
Description: as §1, §2, §3, §4

[11] = system: Streptococcus pyogenes; experiment: Determination of MIC and MLC in test broth; assay type: cell-based; conditions: 30-day subculture
Description: as §1, §2, §3, §4

[12] = Water extraction of 1,4-CHDM from biodiesel, gas chromatography; assay type: physicochemical; conditions: soy biodiesel with theoretical 0.024 wt % CHDM, 0.90% water added, 3 days, centrifuged
Description: A solution of 59.5 wt % 1,4-CHDM in ethoxydiglycol (Eastman DE solvent) was prepared by weighing into a vial 1.36 g ethoxydiglycol and 2.00 g 1,4-CHDM. The mixture was heated to 55° C. to melt the 1,4-CHDM, mixed on a vortex mixer, then placed on a rocker mixer overnight at room temperature to allow all of the 1,4-CHDM to dissolve.
1,4-CHDM was added to soy biodiesel as follows: 60.00 g soy biodiesel was weighed into 4-oz jar. 0.0246 g of the above CHDM/DE solution was weighed into the biodiesel. The sample was mixed using a magnetic stirrer. There was no visible separation after mixing and the biodiesel remained clear. The theoretical amount of CHDM in the biodiesel is 0.024 wt %. 5.00 g was removed from the sample for analysis.
To make a biodiesel mixture containing 0.90% water, 0.50 g deionized water was added to the remaining 55.0 g 1,4-CHDM/DE/biodiesel mixture and mixed with a magnetic stirrer. The mixture became cloudy when stirred and also contained visible water droplets. The mixture was allowed to sit undisturbed for 3 days, during which time a white aqueous layer appeared on the bottom and the biodiesel (top layer) still remained cloudy. The mixture was centrifuged to separate as much water as possible from the biodiesel. […] The 1,4-CHDM/DE/biodiesel mixtures before and after water extraction and the bottom aqueous layer were analyzed by gas chromatography for 1,4-CHDM. […]

OCC1CCC(CO)CC1 (stereo not drawn) [1,4-CHDM, 1,4-cyclohexanedimethanol]
MIC 30 DAYS [1]: 2.5 wt %
MLC 30 DAYS [1]: >20 wt %
MIC 30 DAYS [2]: 2.5 wt %
MLC 30 DAYS [2]: >20 wt %
MIC 30 DAYS [3]: 1.25 wt %
MLC 30 DAYS [3]: 20 wt %
MIC 30 DAYS [4]: 2.5 wt %
MLC 30 DAYS [4]: 20 wt %
MIC 30 DAYS [5]: 2.5 wt %
MLC 30 DAYS [5]: >20 wt %
MIC 30 DAYS [6]: 5 wt %
MLC 30 DAYS [6]: >20 wt %
MIC 30 DAYS [7]: 2.5 wt %
MLC 30 DAYS [7]: >20 wt %
MIC 30 DAYS [8]: 2.5 wt %
MLC 30 DAYS [8]: 20 wt %
MIC 30 DAYS [9]: 5 wt %
MLC 30 DAYS [9]: >20 wt %
MIC 30 DAYS [10]: 2.5 wt %
MLC 30 DAYS [10]: >20 wt %
MIC 30 DAYS [11]: 2.5 wt %
MLC 30 DAYS [11]: 20 wt %
1,4-CHDM content of the aqueous bottom layer [12]: 0.38 wt %

CC(O)CO (stereo not drawn) [PG, propylene glycol]
MIC 30 DAYS [1]: 20 wt %
MLC 30 DAYS [1]: >20 wt %
MIC 30 DAYS [2]: 10 wt %
MLC 30 DAYS [2]: >20 wt %
MIC 30 DAYS [3]: 10 wt %
MLC 30 DAYS [3]: >20 wt %
MIC 30 DAYS [4]: 20 wt %
MLC 30 DAYS [4]: >20 wt %
MIC 30 DAYS [5]: 10 wt %
MLC 30 DAYS [5]: >20 wt %
MIC 30 DAYS [6]: >20 wt %
MLC 30 DAYS [6]: >20 wt %
MIC 30 DAYS [7]: 20 wt %
MLC 30 DAYS [7]: >20 wt %
MIC 30 DAYS [8]: 10 wt %
MLC 30 DAYS [8]: >20 wt %
MIC 30 DAYS [9]: 20 wt %
MLC 30 DAYS [9]: >20 wt %
MIC 30 DAYS [10]: 20 wt %
MLC 30 DAYS [10]: >20 wt %
MIC 30 DAYS [11]: 20 wt %
MLC 30 DAYS [11]: >20 wt %

Reference: patent publication US20100160454A1, “ANTIMICROBIAL AGENTS, COMPOSITIONS AND PRODUCTS CONTAINING THE SAME, AND METHODS OF USING THE COMPOSITIONS AND PRODUCTS” (Eastman Chemical Company, priority 2008, published 2010)
